Key:
CDK8 = target: T1, CDK8 (Homo sapiens, UniProt P49336); experiment: KINOMEscan competition binding assay; details: CDK8, 10 µM
T1 construct: purchased DiscoverX Corporation (Lead Hunter Discovery Services, KINOMEscan)
Excerpt: (§1) To examine specificity of DJ4 to different human kinases, we performed a KINOMEscan profiling assay (DiscoverX, Fremont, CA, USA). The KINOMEscan assay consists of a panel of more than 480 kinases of different classes (TK/TKL/STE/CK1/AGC/CAMK/CMGC/others), including clinically relevant mutants, atypical kinases, lipid, and pathogen kinases. […] However, we also recognized the limitations of DJ4 that preclude its clinical development and the need for further optimization of the DJ4 chemotype.
(§2) The KINOMEscan®, in vitro competition binding assay, was performed by Lead Hunter Discovery Services (DiscoverX Corporation, Fremont, CA, USA) to determine the kinase specificity of DJ4, a novel kinase inhibitor [19, 44]. The KINOMEscan® panel consists of more than 480 kinases, including clinically relevant mutants, lipid, atypical, and pathogen kinases, plus a growing panel of activation-state specific assays. The primary screen was performed using a single concentration of 10 µM, and the results for DJ4 binding interactions are reported as percent of control (%Ctrl). The %Ctrl is calculated as follows: [(DJ4 signal-positive control signal)/(negative control DMSO signal-positive control signal)] x […]. The human kinome tree annotation for DJ4 is plotted with Reaction Biology’s Kinase Mapper and KinMap web interface tool http://kinhub.org/kinmap (accessed on 09 January 2023).

KIT = target: T2, KIT (Homo sapiens, UniProt P10721); experiment: KINOMEscan competition binding assay
T2 construct: purchased DiscoverX Corporation (Lead Hunter Discovery Services, KINOMEscan)
Excerpt: as §1, §2

T1 sequence (P49336 whole entry): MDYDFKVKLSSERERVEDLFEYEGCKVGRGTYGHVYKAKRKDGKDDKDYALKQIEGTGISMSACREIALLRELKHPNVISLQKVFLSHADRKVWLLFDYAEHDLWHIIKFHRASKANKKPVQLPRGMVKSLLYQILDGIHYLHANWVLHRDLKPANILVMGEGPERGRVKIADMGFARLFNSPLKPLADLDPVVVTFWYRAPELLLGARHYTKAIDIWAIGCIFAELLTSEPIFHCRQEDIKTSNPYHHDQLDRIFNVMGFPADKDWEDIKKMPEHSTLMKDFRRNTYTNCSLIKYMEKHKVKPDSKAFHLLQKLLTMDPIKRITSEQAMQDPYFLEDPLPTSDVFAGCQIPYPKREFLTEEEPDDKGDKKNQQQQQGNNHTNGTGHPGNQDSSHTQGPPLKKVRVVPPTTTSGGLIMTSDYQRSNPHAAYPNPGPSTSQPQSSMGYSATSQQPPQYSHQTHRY
T2 sequence (P10721 26-976): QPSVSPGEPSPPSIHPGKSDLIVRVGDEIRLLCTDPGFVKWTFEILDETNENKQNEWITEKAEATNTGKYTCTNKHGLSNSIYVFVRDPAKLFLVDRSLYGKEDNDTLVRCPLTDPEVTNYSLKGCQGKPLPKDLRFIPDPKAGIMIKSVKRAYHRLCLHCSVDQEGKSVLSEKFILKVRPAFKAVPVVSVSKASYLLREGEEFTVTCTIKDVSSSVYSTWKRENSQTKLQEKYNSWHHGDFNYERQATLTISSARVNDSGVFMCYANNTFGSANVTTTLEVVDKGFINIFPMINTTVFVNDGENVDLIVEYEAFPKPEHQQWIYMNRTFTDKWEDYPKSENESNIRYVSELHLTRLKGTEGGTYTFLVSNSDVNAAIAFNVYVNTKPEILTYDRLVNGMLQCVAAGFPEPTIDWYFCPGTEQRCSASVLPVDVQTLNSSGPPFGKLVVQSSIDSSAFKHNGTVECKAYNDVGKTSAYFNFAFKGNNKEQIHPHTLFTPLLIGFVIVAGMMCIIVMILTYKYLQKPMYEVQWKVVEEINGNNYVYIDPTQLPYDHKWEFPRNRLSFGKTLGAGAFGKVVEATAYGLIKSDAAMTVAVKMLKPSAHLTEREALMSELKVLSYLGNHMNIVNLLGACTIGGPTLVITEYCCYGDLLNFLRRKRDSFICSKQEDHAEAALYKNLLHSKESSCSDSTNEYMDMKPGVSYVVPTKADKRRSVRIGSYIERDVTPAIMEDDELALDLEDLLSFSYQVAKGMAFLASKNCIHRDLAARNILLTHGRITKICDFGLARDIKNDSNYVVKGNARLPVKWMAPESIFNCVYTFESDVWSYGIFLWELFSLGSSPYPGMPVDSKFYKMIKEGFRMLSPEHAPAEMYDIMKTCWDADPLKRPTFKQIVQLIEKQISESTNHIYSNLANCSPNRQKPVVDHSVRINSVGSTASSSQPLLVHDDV

Compound: O=C1N/C(=N\CCc2ccccc2)S/C1=C/c1c[nH]c2ncccc12 [DJ4]
- inhibition at 10 µM (CDK8): > 98%
- inhibition at 10 µM (KIT): > 98%

Reference: paper PMC10458458, “Characterization of Anticancer Effects of the Analogs of DJ4, a Novel Selective Inhibitor of ROCK and MRCK Kinases” (Pharmaceuticals, 2023)
